Assay results published in patent US9925189B2, “Heterocyclic receptor agonists for the treatment of diabetes and metabolic disorders” (CymaBay Therapeutics, Inc., priority 2006, dated 2018).

Molecular target: T1, IC-GPCR2 (Homo sapiens, UniProt Q8TDV5, S309L)
T1 construct: expressed in transfected cells
T1 sequence (Q8TDV5 1-335 S309L): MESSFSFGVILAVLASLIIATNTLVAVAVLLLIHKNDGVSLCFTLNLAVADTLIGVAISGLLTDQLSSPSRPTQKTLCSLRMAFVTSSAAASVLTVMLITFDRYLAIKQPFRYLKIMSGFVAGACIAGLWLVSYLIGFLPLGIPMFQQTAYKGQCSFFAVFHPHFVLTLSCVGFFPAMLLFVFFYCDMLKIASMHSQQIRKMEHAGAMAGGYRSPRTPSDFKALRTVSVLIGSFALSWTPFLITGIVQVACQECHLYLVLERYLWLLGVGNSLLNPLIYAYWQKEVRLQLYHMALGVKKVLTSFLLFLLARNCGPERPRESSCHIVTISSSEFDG
Experiment: Stimulation of cAMP in CHO cells stably expressing IC-GPCR2 (HTRF cAMP assay)
Type: cell-based
Details: 0.5 h, 30 minutes, IC-GPCR2 stably expressing CHO cells, read-out: Activity at 10 uM (% change in FRET signal from DMSO control)
How it was run: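 CHO cells stably expressing IC-GPCR2, plated at 17500 cells/well, treated next day for 30 min in Ham's F12 with compounds at 6–8 concentrations from 0.00003 to 10 μM; parental CHO cells also screened. Intracellular cAMP read by HTRF competitive immunoassay (665/620 nm ratio). Activity given as % FRET change from DMSO control.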

activation at 10 µM | Compound
53% | CCc1cnc(N2CCC(c3nc(COc4ccc(-n5cnnn5)cc4C(F)(F)F)cs3)CC2)nc1 [Example 119, 5-Ethyl-2-{4-[4-(4-tetrazol-1-yl-2-trifluoromethyl-phenoxymethyl)-thiazol-2-yl]-piperidin-1-yl}-pyrimidine]
76% | Fc1cc(-n2cnnn2)ccc1OCc1csc(C2CCN(c3ncc(C(F)(F)F)cn3)CC2)n1 [Example 171, 2-{4-[4-(2-Fluoro-4-tetrazol-1-yl-phenoxymethyl)-thiazol-2-yl]-piperidin-1-yl}-5-trifluoromethyl-pyrimidine]
43% | CCOC(=O)c1ccc(OCc2csc(C3CCN(C(=O)OC(C)(C)C)CC3)n2)cc1 [Example 129, 4-[4-(4-Ethoxycarbonyl-phenoxymethyl)-thiazol-2-yl]-piperidine-1-carboxylic acid tert-butyl ester]
75% | COC(=O)c1cc(C)nc(N2CCC(c3nc(COc4ccc(-n5cnnn5)cc4)cs3)CC2)n1 [Example 173, 6-Methyl-2-{4-[4-(4-tetrazol-1-yl-phenoxymethyl)-thiazol-2-yl]-piperidin-1-yl}-pyrimidine-4-carboxylic acid methyl ester]
78% | CCc1cnc(N2CCC(c3nc(COc4c(F)cc(-n5cnnn5)cc4F)cs3)CC2)nc1 [Example 159, 2-{4-[4-(2,6-Difluoro-4-tetrazol-1-yl-phenoxymethyl)-thiazol-2-yl]-piperidin-1-yl}-5-ethyl-pyrimidine]
64% | Cc1cc(-n2cnnn2)ccc1OCc1csc(C2CCN(C(=O)OC(C)(C)C)CC2)n1 [Example 118, 4-[4-(2-Methyl-4-tetrazol-1-yl-phenoxymethyl)-thiazol-2-yl]-piperidine-1-carboxylic acid tert-butyl ester]
64% | CC(C)(C)OC(=O)N1CCC(c2nc(CNc3ccc(S(C)(=O)=O)cc3)cs2)CC1 [Example 138, 4-{4-[(4-Methanesulfonyl-phenylamino)-methyl]-thiazol-2-yl}-piperidine-1-carboxylic acid tert-butyl ester]
71% | CC(C)(C)OC(=O)N1CCC(c2nc(COCc3ccc(S(C)(=O)=O)cc3)cs2)CC1 [Example 106, 4-[4-(4-Methanesulfonyl-benzyloxymethyl)-thiazol-2-yl]-piperidine-1-carboxylic acid tert-butyl ester]
63% | C[C@H](NCc1csc(C2CCN(C(=O)OC(C)(C)C)CC2)n1)c1ccc(S(C)(=O)=O)cc1 [Example 143, 4-(4-{[1-(4-Methanesulfonyl-phenyl)-ethylamino]-methyl}-thiazol-2-yl)-piperidine-1-carboxylic acid tert-butyl ester]
57% | CC(C)(C)OC(=O)N1CCC(c2nc(COc3ccc(-n4ccnn4)cc3)cs2)CC1 [Example 128, 4-[4-(4-[1,2,3]Triazol-1-yl-phenoxymethyl)-thiazol-2-yl]-piperidine-1-carboxylic acid tert-butyl ester]
73% | CCc1cnc(N2CCC(c3nc(COc4ccc(-n5cnnn5)cc4Cl)cs3)CC2)nc1 [Example 120, 2-{4-[4-(2-Chloro-4-tetrazol-1-yl-phenoxymethyl)-thiazol-2-yl]-piperidin-1-yl}-5-ethyl-pyrimidine]
69% | CCc1cnc(N2CCC(c3nc(CNc4ccc(F)nc4)cs3)CC2)nc1 [Example 188, {2-[1-(5-Ethyl-pyrimidin-2-yl)-piperidin-4-yl]-thiazol-4-ylmethyl}-(6-fluoro-pyridin-3-yl)-amine]
68% | CC(C)(C)OC(=O)N1CCC(c2nc(COc3ccc([S+]([O-])C(F)(F)F)cc3)cs2)CC1 (stereo not drawn) [Example 111, 4-[4-(4-Trifluoromethanesulfinyl-phenoxymethyl)-thiazol-2-yl]-piperidine-1-carboxylic acid tert-butyl ester]
81% | C[C@H]1CN(C(=O)OC(C)(C)C)CC[C@H]1c1nc(COc2ccc(-n3cnnn3)cc2)cs1 (stereo in doubt) [Example 144, 3-Methyl-4-[4-(4-tetrazol-1-yl-phenoxymethyl)-thiazol-2-yl]-piperidine-1-carboxylic acid tert-butyl ester]
6% | Cc1ccc(S(=O)(=O)N2CCC(c3nc(COc4ccc(-n5cnnn5)cc4)cs3)CC2)cc1 [Example 156, 4-[4-(4-Tetrazol-1-yl-phenoxymethyl)-thiazol-2-yl]-1-(toluene-4-sulfonyl)-piperidine]

Further lines, the molecule ahead of its results:

Compound | activation at 10 µM
CC(C)(C)OC(=O)N1CCCC(c2nc(COc3ccc(-n4cnnn4)cc3)cs2)C1 (stereo not drawn) [Example 104, 3-[4-(4-Tetrazol-1-yl-phenoxymethyl)-thiazol-2-yl]-piperidine-1-carboxylic acid tert-butyl ester] | 76%
CC(C)c1noc(N2CCC(c3nc(COc4ccc(-n5cnnn5)cc4)cs3)CC2)n1 [Example 95, 1-(3-Isopropyl-[1,2,4]oxadiazol-5-yl)-4-[4-(4-tetrazol-1-yl-phenoxymethyl)-thiazol-2-yl]-piperidine] | 63%
CCc1cnc(N2CCC(c3nc(COc4ccc(-n5cnnn5)cc4)cs3)C2)nc1 (stereo not drawn) [Example 103, 5-Ethyl-2-{3-[4-(4-tetrazol-1-yl-phenoxymethyl)-thiazol-2-yl]-pyrrolidin-1-yl}-pyrimidine] | 79%
CCc1cnc(N2CCC(c3nc(COc4ccc(SC)c(C)c4)cs3)CC2)nc1 [Example 13] | 94%
c1cc(-n2cnnn2)ccc1OCc1csc(C2CCN(c3nc(C4CC4)no3)CC2)n1 [Example 97, 1-(3-Cyclopropyl-[1,2,4]oxadiazol-5-yl)-4-[4-(4-tetrazol-1-yl-phenoxymethyl)-thiazol-2-yl]-piperidine] | 52%
CS(=O)(=O)c1ccc(OCc2csc(C3CCN(C(=O)Oc4cccc5ccccc45)CC3)n2)cc1 [Example 29, 4-[4-(4-Methanesulfonyl-phenoxymethyl)-thiazol-2-yl]-piperidine-1-carboxylic acid naphthalen-1-yl ester] | 51%
Clc1ccc(-c2cnc(N3CCC(c4nc(COc5ccc(-n6cnnn6)cc5)cs4)CC3)nc2)cc1 [Example 59] | 70%
CCc1cnc(N2CCC(c3nc(COc4ccc(S(C)(=O)=O)cc4F)cs3)CC2)nc1 [Example 76, 5-Ethyl-2-{4-[4-(2-fluoro-4-methanesulfonyl-phenoxymethyl)-thiazol-2-yl]-piperidin-1-yl}-pyrimidine] | 74%
Fc1cnc(N2CCC(c3nc(COc4ccc(-n5cnnn5)cc4)cs3)CC2)nc1 [Example 55, 5-Fluoro-2-{4-[4-(4-tetrazol-1-yl-phenoxymethyl)-thiazol-2-yl]-piperidin-1-yl}-pyrimidine] | 66%
CCc1cnc(N2CCC(c3nc(COc4ccc(S(C)(=O)=O)c(C)c4)cs3)CC2)nc1 [Example 14, 5-Ethyl-2-{4-[4-(4-methanesulfonyl-3-methyl-phenoxymethyl)-thiazol-2-yl]-piperidin-1-yl}-pyrimidine] | 84%
CCc1noc(N2CCC(c3nc(COc4ccc(-n5cnnn5)cc4)cs3)CC2)n1 [Example 96, 1-(3-Ethyl-[1,2,4]oxadiazol-5-yl)-4-[4-(4-tetrazol-1-yl-phenoxymethyl)-thiazol-2-yl]-piperidine] | 79%
CN1CCN(C(=O)N2CCC(c3nc(COc4ccc(-n5cnnn5)cc4)cs3)CC2)CC1 [Example 44, (4-Methyl-piperazin-1-yl)-{4-[4-(4-tetrazol-1-yl-phenoxymethyl)-thiazol-2-yl]-piperidin-1-yl}-methanone] | 53%
CCc1cnc(N2CCC(c3nc(COc4ccc(S(N)(=O)=O)cc4)cs3)CC2)nc1 [Example 9, 4-{2-[1-(5-Ethyl-pyrimidin-2-yl)-piperidin-4-yl]-thiazol-4-ylmethoxy}-benzenesulfonamide] | 54%
CC(C)(C)OC(=O)N1CCC(c2nc(CS(=O)(=O)c3ccc(S(C)(=O)=O)cc3)cs2)CC1 [Example 21, 4-[4-(4-Methanesulfonyl-benzenesulfonylmethyl)-thiazol-2-yl]-piperidine-1-carboxylic acid tert-butyl ester] | 23%
CC(C)(C)OC(=O)N1CCC(F)(c2nc(COc3ccc(S(C)(=O)=O)cc3)cs2)CC1 [Example 87, 4-Fluoro-4-[4-(4-methanesulfonyl-phenoxymethyl)-thiazol-2-yl]-piperidine-1-carboxylic acid tert-butyl ester] | 62%
CCCCCOC(=O)N1CCC(c2nc(COc3ccc(-n4cnnn4)cc3)cs2)CC1 [Example 31, 4-[4-(4-Tetrazol-1-yl-phenoxymethyl)-thiazol-2-yl]-piperidine-1-carboxylic acid pentyl ester] | 88%
CC(C)(C)OC(=O)N1CCC(c2nc(COc3ccc(-n4cnnn4)cc3)cs2)CC1 [Example 7, 4-[4-(4-Tetrazol-1-yl-phenoxymethyl)-thiazol-2-yl]-piperidine-1-carboxylic acid tert-butyl ester] | 64%
CCCCCCOC(=O)N1CCC(c2nc(COc3ccc(-n4cnnn4)cc3)cs2)CC1 [Example 35, 4-[4-(4-Tetrazol-1-yl-phenoxymethyl)-thiazol-2-yl]-piperidine-1-carboxylic acid hexyl ester] | 64%
